Common to all, as to settings: stereoisomer not certain
Data set [1] is described as follows: RP, Waters CORTECS T3, 100 × 2.1 mm, 2.7 µm, 0.3 mL/min, estimated dead time 0.73 min; A: water + 0.1% formic acid, pH 3; B: methanol + 0.1% formic acid, pH 3; gradient (min/%B) 0/5 5/5 25/100 30/100 30.1/5 35/5.
Data set [2] can be described thus: RP, Waters CORTECS T3, 100 × 2.1 mm, 2.7 µm, 0.2 mL/min, estimated dead time 1.1 min; A: water + 0.1% formic acid, pH 3; B: methanol + 0.1% formic acid, pH 3; gradient (min/%B) 0/0 1/0 6/5 30/100 35/100 35.1/0 40/0.
Data set [3] can be described thus: RP, Waters CORTECS T3, 100 × 2.1 mm, 2.7 µm, 0.15 mL/min, estimated dead time 1.5 min; A: water + 0.1% formic acid, pH 3; B: methanol + 0.1% formic acid, pH 3; gradient (min/%B) 0/0 1/0 6/5 30/100 35/100 35.1/0 40/0.
Data set [4] in a line: RP, Waters CORTECS T3, 100 × 2.1 mm, 2.7 µm, 0.3 mL/min, estimated dead time 0.73 min; A: water + 0.1% formic acid, pH 3; B: methanol + 0.1% formic acid, pH 3; gradient (min/%B) 0/0 1/0 6/5 30/100 35/100 35.1/0 40/0.
The nature of data set [5]: RP, Waters CORTECS T3, 100 × 2.1 mm, 2.7 µm, 0.25 mL/min, estimated dead time 0.88 min; A: water + 0.1% formic acid, pH 3; B: methanol + 0.1% formic acid, pH 3; gradient (min/%B) 0/0 1/0 6/5 30/100 35/100 35.1/0 40/0.
Data set [6] is described as follows: RP, Waters CORTECS T3, 100 × 2.1 mm, 2.7 µm, 0.3 mL/min, estimated dead time 0.73 min; A: water + 0.1% formic acid, pH 3; B: methanol + 0.1% formic acid, pH 3; gradient (min/%B) 0/5 5/5 25/95 25.1/100 35/100 35.1/5 45/5.
A short description of data set [7]: RP, Waters CORTECS T3, 100 × 2.1 mm, 2.7 µm, 0.2 mL/min, estimated dead time 1.1 min; A: water + 0.045% formic acid + 0.11% ammonium hydroxide, pH 7; B: methanol; gradient (min/%B) 0/5 5/5 25/95 25.1/100 35/100 35.1/5 45/5.
A short description of data set [8]: RP, Waters ACQUITY UPLC BEH C18, 100 × 2.1 mm, 1.7 µm, 0.1 mL/min, estimated dead time 2.2 min; A: water + 0.1% formic acid, pH 3; B: methanol + 0.1% formic acid, pH 3; gradient (min/%B) 0/5 5/5 25/95 25.1/100 35/100 35.1/5 45/5.
The nature of data set [9]: RP, Waters ACQUITY UPLC BEH C18, 100 × 2.1 mm, 1.7 µm, 0.1 mL/min, estimated dead time 2.2 min; A: water + 0.045% formic acid + 0.11% ammonium hydroxide, pH 7; B: methanol; gradient (min/%B) 0/5 5/5 25/95 25.1/100 35/100 35.1/5 45/5.
The nature of data set [10]: RP, Waters ACQUITY UPLC BEH C18, 100 × 2.1 mm, 1.7 µm, 0.2 mL/min, estimated dead time 1.1 min; A: water + 0.025% formic acid + 20 mM ammonium acetate + 0.055% ammonium hydroxide, pH 7; B: methanol; gradient (min/%B) 0/5 5/5 25/100 30/100 30.1/5 35/5.
The nature of data set [11]: RP, Waters CORTECS T3, 100 × 2.1 mm, 2.7 µm, 0.3 mL/min, estimated dead time 0.73 min; A: water + 0.1% formic acid, pH 3; B: methanol + 0.1% formic acid, pH 3; gradient (min/%B) 0/0 5/0 25/100 30/100 30.1/0 35/0.
The nature of data set [12]: RP, Waters CORTECS T3, 100 × 2.1 mm, 2.7 µm, 0.1 mL/min, estimated dead time 2.2 min; A: water + 0.1% formic acid, pH 3; B: methanol + 0.1% formic acid, pH 3; gradient (min/%B) 0/0 1/0 6/5 30/100 35/100 35.1/0 40/0.
A short description of data set [13]: RP, Waters CORTECS T3, 100 × 2.1 mm, 2.7 µm, 0.1 mL/min, estimated dead time 2.2 min; A: water + 0.1% formic acid, pH 3; B: methanol + 0.1% formic acid, pH 3; gradient (min/%B) 0/5 5/5 25/95 25.1/100 35/100 35.1/5 45/5.
Data set [14] is described as follows: RP, Waters ACQUITY UPLC BEH C18, 100 × 2.1 mm, 1.7 µm, 0.1 mL/min, estimated dead time 2.2 min; A: water + 0.1% formic acid, pH 3; B: methanol + 0.1% formic acid, pH 3; gradient (min/%B) 0/5 5/5 25/100 30/100 30.1/5 35/5.
Data set [15] is described as follows: RP, Waters CORTECS T3, 100 × 2.1 mm, 2.7 µm, 0.2 mL/min, estimated dead time 1.1 min; A: water + 0.1% formic acid, pH 3; B: methanol + 0.1% formic acid, pH 3; gradient (min/%B) 0/5 5/5 25/95 25.1/100 35/100 35.1/5 45/5.
Data set [16] can be described thus: RP, Thermo Scientific Hypercarb, 150 × 2.1 mm, 5 µm, 0.1 mL/min, estimated dead time 3.3 min; A: water + 0.1% formic acid, pH 3; B: methanol + 0.1% formic acid, pH 3; gradient (min/%B) 0/5 5/5 20/100 35/100 35.1/5 45/5.

Turning to `CCCCCCCCCC(=O)OCC(COP(=O)([O-])OCC[N+](C)(C)C)OC(=O)CCCCCCCCC` (stereo not given) [1,2-DIDECANOYL-SN-GLYCERO-3-PHOSPHOCHOLINE], the LC retention time in [1] was 24.3 min; in data set [2], 29.8 min; in data set [3], 30.9 min; in data set [4], 28.7 min; in data set [5], 29.2 min; in data set [6] it was 25.3 min. Moreover, the LC retention time in [7] is 26 min; in [8], 29.7 min; in data set [9] it was 29.7 min; in [10], 26 min.
As to `O=c1cccc[nH]1` [2-HYDROXYPYRIDINE], the LC retention time was 1.91 min in data set [1]; 2.85 min in data set [11]; 4.15 min in data set [2]; 2.74 min in data set [12]; 5.81 min in data set [3]; 2.69 min in data set [4]. Also, the LC retention time is 3.26 min in data set [5]; 5.41 min in data set [13]; 1.89 min in [6]; 5.99 min in [14]; 2.92 min in data set [7]; 2.75 min in data set [8]. For the same compound, the LC retention time is 5.83 min in [9] and 3.24 min in data set [10].
As to `NCCP(=O)(O)O` [(2-AMINOETHYL)PHOSPHONATE], the values for the LC retention time in [15] and in data set [8] were 2.44 min and 2.75 min, respectively.
On to `CN(CC(=O)O)C(N)=NP(=O)(O)O` [CREATINE PHOSPHATE], for which the LC retention time in [8] is 3.05 min.
In the case of `C[N+](C)(C)CCOP(=O)(O)OP(=O)([O-])OCC1OC(n2ccc(N)nc2=O)C(O)C1O` (stereo not given) [CYTIDINE 5'-DIPHOSPHOCHOLINE], the LC retention time is 1.34 min in [2], 1.78 min in [3], 1.09 min in data set [5] and 2.72 min in data set [8].
Turning to `NC(=O)c1ccc[n+](C2OC(COP(=O)(O)OP(=O)(O)OCC3OC(n4cnc5c(N)ncnc54)C(O)C3O)C(O)C2O)c1` (stereo not given) [NAD], the figures for the LC retention time in [14] and in data set [8] were 2.74 min and 2.78 min, respectively.
`NC(=O)c1cccnc1` [NICOTINAMIDE]: the LC retention time was 1.2 min in data set [1]; 1.63 min in data set [11]; 2.36 min in data set [2]; 3.31 min in data set [3]; 1.57 min in data set [4]; 1.9 min in data set [5]. Moreover, the LC retention time in data set [13] was 3.38 min; in [16], 24.4 min; in [6], 1.17 min; in data set [14], 3.66 min; in data set [7] it was 3.68 min; in [8], 2.69 min. Moreover, the LC retention time was 6.91 min in [9] and 3.89 min in [10].
Turning to `C[N+](C)(C)CCOP(=O)(O)O` [PHOSPHOCHOLINE], the LC retention time in data set [16] was 4.81 min; in data set [8] it was 2.66 min.
For the compound `C[N+](C)(C)CCOP(=O)([O-])OCC(O)CO` (stereo not given) [SN-GLYCERO-3-PHOSPHOCHOLINE], the values for the LC retention time in [16] and in data set [8] were 5.02 min and 2.66 min, respectively.
Consider `O=c1cc[nH]c(=O)[nH]1` [URACIL], for which the LC retention time in [1] is 0.95 min; in [11] it was 0.91 min; in data set [2], 1.36 min; in [3] it was 1.85 min; in data set [5], 1.11 min; in data set [13], 2.68 min. In addition, the figures for the LC retention time in [16], in data set [14] and in data set [8] were 21.2 min, 2.76 min and 2.69 min, respectively.

Source of the values: the RepoRT retention time repository (doi:10.1016/j.jchromb.2020.122105).
